ChEMBL document CHEMBL5360551, “Exploration of LPS2 agonist binding modes using the combination of a new hydrophobic scaffold and homology modeling” (Eur J Med Chem, 2023)
Activity calls are given as the source filed them. No cut-off for these calls is given here.

Columns and labels:
Assay type in all cases: functional, cell-based
[1] = target: Putative P2Y purinoceptor 10 (Mus musculus, UniProt Q8BFU7); assay: Agonist activity at mouse LPS2/P2Y10 transfected in HEK293-A cells co-transfected with AP-TGFalpha assessed as AP-TGFalpha release by TGFalpha shedding assay; settings: read-out: EC50
[2] = tested on: McA-RH7777; assay: Induction of actin stress fiber formation in rat McA-RH7777 cells expressing mouse LPS2 at 1 uM incubated for 30 mins by Alexa594-labelled phalloidin staining based fluorescence microscopic analysis
[3] = target: Putative P2Y purinoceptor 10 (Mus musculus) (UniProt Q8BFU7); assay: Agonist activity at mouse LPS2/P2Y10 transfected in HEK293-A cells co-transfected with AP-TGFalpha assessed as AP-TGFalpha release by TGFalpha shedding assay relative to LysoPS; settings: filed as agonist
[4] = target: T1, Putative P2Y purinoceptor 10 (Homo sapiens, UniProt O00398); assay: Agonist activity at human LPS2/P2Y10 transfected in HEK293-A cells co-transfected with AP-TGFalpha assessed as AP-TGFalpha release by TGFalpha shedding assay; settings: read-out: EC50
[5] = target: T1, Putative P2Y purinoceptor 10; assay: Agonist activity at human LPS2/P2Y10 transfected in HEK293-A cells co-transfected with AP-TGFalpha assessed as AP-TGFalpha release by TGFalpha shedding assay relative to LysopPS; settings: filed as agonist
[6] = tested on: McA-RH7777; assay: Induction of actin stress fiber formation in rat McA-RH7777 cells expressing mouse LPS2 at 1 nM incubated for 30 mins by Alexa594-labelled phalloidin staining based fluorescence microscopic analysis
[7] = tested on: McA-RH7777; assay: Induction of actin stress fiber formation in rat McA-RH7777 cells expressing mouse LPS2 at 0.001 to 1 uM incubated for 30 mins by Alexa594-labelled phalloidin staining based fluorescence microscopic analysis; settings: dose 0.001-1 µM

Sequence of Putative P2Y purinoceptor 10 (Mus musculus) (Q8BFU7 whole entry): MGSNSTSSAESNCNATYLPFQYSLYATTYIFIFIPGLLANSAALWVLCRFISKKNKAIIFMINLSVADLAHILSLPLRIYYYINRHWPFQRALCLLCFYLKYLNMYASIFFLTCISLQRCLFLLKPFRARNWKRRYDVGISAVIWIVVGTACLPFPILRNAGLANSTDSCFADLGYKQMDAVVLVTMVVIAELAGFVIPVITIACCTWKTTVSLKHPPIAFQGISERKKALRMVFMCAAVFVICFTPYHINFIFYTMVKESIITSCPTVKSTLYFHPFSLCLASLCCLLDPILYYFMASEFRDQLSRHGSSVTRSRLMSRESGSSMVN
Sequence of Putative P2Y purinoceptor 10 (Mus musculus, UniProt Q8BFU7) (Q8BFU7 whole entry): as above
T1 sequence (O00398 whole entry): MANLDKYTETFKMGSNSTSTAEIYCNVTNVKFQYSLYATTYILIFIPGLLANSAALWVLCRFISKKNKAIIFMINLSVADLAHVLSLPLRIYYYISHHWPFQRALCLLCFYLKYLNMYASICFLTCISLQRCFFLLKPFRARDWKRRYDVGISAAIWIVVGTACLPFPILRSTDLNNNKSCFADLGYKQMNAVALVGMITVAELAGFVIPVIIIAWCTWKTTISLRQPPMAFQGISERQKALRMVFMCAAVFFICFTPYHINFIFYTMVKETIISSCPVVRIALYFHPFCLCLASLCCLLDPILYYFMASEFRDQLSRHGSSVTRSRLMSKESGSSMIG

EC50 [1] | Emax [3] | EC50 [4] | Emax [5] | Structure (SMILES) | Activity [2] | Activity [6] | Activity [7]
1.9 nM | 83% | 6.1 nM | 112% | N[C@@H](COP(=O)(O)OCCCOC(=O)CCc1ccccc1Oc1ccc(-c2cc(-c3ccccc3)cc(-c3ccccc3)c2)cc1)C(=O)O |  | Active | 
170 nM | 100% |  |  | N[C@@H](COP(=O)(O)OCCCOC(=O)CCc1ccccc1Oc1ccc(-c2ccc(C(=O)O)cc2)cc1)C(=O)O |  |  | inactive
1 nM | 113% | 22 nM | 125% | N[C@@H](COP(=O)(O)OCCCOC(=O)CCc1ccccc1Oc1ccc(-c2cccc(-c3ccccc3)c2)cc1)C(=O)O |  | Active | 

Structure (SMILES) | EC50 [1] | Emax [3] | EC50 [4] | Emax [5] | Activity [2] | Activity [6] | Activity [7]
CCCCCCCC/C=C\CCCCCCCC(=O)OC[C@@H](O)COP(=O)(O)OC[C@H](N)C(=O)O | 21 nM |  |  |  | Active |  | 
